{
  "source": "ChEMBL document CHEMBL4477208",
  "about": "“Discovery and Rational Design of Pteridin-7(8H)-one-Based Inhibitors Targeting FMS-like Tyrosine Kinase 3 (FLT3) and Its Mutants” (J Med Chem, 2016)",
  "key": {"MV4-11 [1]": {"system": "MV4-11", "test": "Cell cycle arrest in human MV4-11 cells assessed as cell debris level at 100 nM after 48 hrs by PI/RNase staining based FACS analysis", "assay_type": "functional"}, "[2]": {"molecular_target": "Interleukin-1 receptor-associated kinase 1 (Homo sapiens) (UniProt P51617)", "sequence (P51617 whole entry, looked up)": "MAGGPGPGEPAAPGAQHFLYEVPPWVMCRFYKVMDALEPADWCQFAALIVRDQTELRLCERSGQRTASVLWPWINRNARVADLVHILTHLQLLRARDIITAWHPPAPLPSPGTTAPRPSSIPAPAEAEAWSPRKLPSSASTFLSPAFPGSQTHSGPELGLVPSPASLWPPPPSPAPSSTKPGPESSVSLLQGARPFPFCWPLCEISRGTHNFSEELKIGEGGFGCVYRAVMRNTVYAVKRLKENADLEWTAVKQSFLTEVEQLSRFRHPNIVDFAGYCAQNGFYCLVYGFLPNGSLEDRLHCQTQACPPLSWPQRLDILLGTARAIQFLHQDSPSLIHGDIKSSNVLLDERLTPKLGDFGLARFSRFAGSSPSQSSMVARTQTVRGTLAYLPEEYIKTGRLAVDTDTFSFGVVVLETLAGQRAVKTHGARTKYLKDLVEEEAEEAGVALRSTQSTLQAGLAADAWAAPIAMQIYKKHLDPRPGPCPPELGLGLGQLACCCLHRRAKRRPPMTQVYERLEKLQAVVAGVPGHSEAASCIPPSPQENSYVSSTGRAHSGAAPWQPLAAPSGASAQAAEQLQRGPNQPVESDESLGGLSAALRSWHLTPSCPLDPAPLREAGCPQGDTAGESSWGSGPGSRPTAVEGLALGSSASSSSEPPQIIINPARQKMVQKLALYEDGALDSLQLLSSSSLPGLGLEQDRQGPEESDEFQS", "test": "Inhibition of human IRAK1 expressed in mammalian system assessed as remaining enzyme activity at 1 uM relative to untreated control"}, "MV4-11 [3]": {"system": "MV4-11", "test": "Cell cycle arrest in human MV4-11 cells assessed as accumulation at S phase at 1 nM after 48 hrs by PI/RNase staining based FACS analysis (reference value: 16.50%)", "assay_type": "functional"}, "HT-29": {"system": "HT-29", "test": "Antiproliferative activity against human HT-29 cells after 72 hrs by SRB assay", "assay_type": "functional, cell-based", "details": "HT-29, 72 h"}, "MOLM-13": {"system": "MOLM-13", "test": "Antiproliferative activity against human MOLM13 cells harboring FLT3-ITD mutant after 72 hrs by MTT assay", "assay_type": "functional, cell-based", "details": "MOLM-13, 72 h"}, "MV4-11 [4]": {"system": "MV4-11", "test": "Induction of apoptosis in human MV4-11 cells assessed as early apoptotic cells at 1000 nM after 48 hrs by annexin V/propidium iodide staining based FACS analysis (reference value: 6.31%)", "assay_type": "functional"}, "[5]": {"system": "Receptor-type tyrosine-protein kinase FLT3 (Homo sapiens), P36888 [UNDEFINED MUTATION]", "test": "Inhibition of human FLT3 ITD mutant expressed in bacterial system assessed as remaining enzyme activity at 1 uM relative to untreated control"}, "[6]": {"test": "Cmax in overnight fasted Sprague-Dawley rat plasma at 1 mg/kg, iv up to 24 hrs by LC-MS/MS analysis", "assay_type": "ADME, organism-based", "parameters": "dose 1 mg/kg, route intravenous"}, "MV4-11 [7]": {"system": "MV4-11", "test": "Cell cycle arrest in human MV4-11 cells assessed as accumulation at G0/G1 phase after 48 hrs by PI/RNase staining based FACS analysis", "assay_type": "functional"}, "DMS-79": {"system": "DMS-79", "test": "Antiproliferative activity against human DMS79 cells after 72 hrs by MTT assay", "assay_type": "functional, cell-based", "details": "DMS-79, 72 h"}, "[8]": {"test": "Oral bioavailability in overnight fasted Sprague-Dawley rat plasma at 10 mg/kg administered via oral gavage up to 24 hrs by LC-MS/MS analysis", "assay_type": "ADME, organism-based"}, "[9]": {"test": "Ratio of IC50 for human WI38 cells to IC50 for human MV4-11 cells", "assay_type": "toxicity", "details": "WI38 cells versus MV4-11 cells, read-out: Ratio IC50"}, "[10]": {"molecular_target": "Receptor-type tyrosine-protein kinase FLT3 (Homo sapiens, UniProt P36888, D835V/ITD)", "test": "Binding affinity to human partial length FLT3 ITD/D835V mutant expressed in mammalian expression system after 1 hr"}, "[11]": {"molecular_target": "Platelet-derived growth factor receptor beta (Homo sapiens) (UniProt P09619)", "sequence (P09619 whole entry)": "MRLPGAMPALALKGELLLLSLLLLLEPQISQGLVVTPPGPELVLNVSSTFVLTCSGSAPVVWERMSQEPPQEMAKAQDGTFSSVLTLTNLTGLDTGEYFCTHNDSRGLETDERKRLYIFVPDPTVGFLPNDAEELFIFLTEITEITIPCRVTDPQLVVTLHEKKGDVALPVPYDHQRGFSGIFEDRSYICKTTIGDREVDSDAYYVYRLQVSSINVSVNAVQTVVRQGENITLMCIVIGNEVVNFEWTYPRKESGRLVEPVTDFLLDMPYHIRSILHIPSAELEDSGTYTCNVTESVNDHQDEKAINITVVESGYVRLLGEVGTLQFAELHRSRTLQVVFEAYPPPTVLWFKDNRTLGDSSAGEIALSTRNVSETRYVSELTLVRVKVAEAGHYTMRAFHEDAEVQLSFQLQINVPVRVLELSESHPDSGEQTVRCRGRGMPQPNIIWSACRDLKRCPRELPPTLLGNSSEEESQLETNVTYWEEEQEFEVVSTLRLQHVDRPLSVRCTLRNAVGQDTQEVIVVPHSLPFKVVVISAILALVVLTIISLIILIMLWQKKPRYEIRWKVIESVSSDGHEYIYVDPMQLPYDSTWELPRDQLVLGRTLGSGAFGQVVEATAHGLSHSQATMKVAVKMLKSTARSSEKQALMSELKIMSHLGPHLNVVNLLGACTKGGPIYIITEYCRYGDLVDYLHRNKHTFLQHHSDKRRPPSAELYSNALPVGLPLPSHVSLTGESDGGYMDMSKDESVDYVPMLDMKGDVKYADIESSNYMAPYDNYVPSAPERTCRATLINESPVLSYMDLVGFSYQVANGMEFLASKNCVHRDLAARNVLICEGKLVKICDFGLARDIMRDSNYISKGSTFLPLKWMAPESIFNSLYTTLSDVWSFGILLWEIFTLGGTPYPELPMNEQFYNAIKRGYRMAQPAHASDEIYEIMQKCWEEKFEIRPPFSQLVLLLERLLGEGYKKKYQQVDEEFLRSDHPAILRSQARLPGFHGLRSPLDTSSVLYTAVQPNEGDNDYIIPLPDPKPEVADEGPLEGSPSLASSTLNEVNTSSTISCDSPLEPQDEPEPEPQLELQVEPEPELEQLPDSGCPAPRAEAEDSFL", "test": "Inhibition of human PDGFRB expressed in bacterial system assessed as remaining enzyme activity at 1 uM relative to untreated control"}, "MV4-11 [12]": {"system": "MV4-11", "test": "Cell cycle arrest in human MV4-11 cells assessed as accumulation at G0/G1 phase at 1000 nM after 48 hrs by PI/RNase staining based FACS analysis (reference value: 69.55%)", "assay_type": "functional"}, "MV4-11 [13]": {"system": "MV4-11", "test": "Cell cycle arrest in human MV4-11 cells assessed as accumulation at G0/G1 phase at 100 nM after 48 hrs by PI/RNase staining based FACS analysis (reference value: 69.55%)", "assay_type": "functional"}, "MV4-11 [14]": {"system": "MV4-11", "test": "Induction of apoptosis in human MV4-11 cells assessed as necrotic cells at 10000 nM after 48 hrs by annexin V/propidium iodide staining based FACS analysis (reference value: 0.05%)", "assay_type": "functional"}, "MV4-11 [15]": {"system": "MV4-11", "test": "Induction of apoptosis in human MV4-11 cells assessed as late apoptotic cells at 100 nM after 48 hrs by annexin V/propidium iodide staining based FACS analysis (reference value: 3.01%)", "assay_type": "functional"}, "MV4-11 [16]": {"system": "MV4-11", "test": "Antitumor activity against human MV4-11 cells xenografted in nude BALB/c mouse assessed as tumor growth inhibition administered orally qd for 14 days measured every 2 days", "assay_type": "functional"}, "[17]": {"test": "AUC (0 to infinity) in overnight fasted Sprague-Dawley rat plasma at 1 mg/kg, iv up to 24 hrs by LC-MS/MS analysis", "assay_type": "ADME, organism-based", "parameters": "dose 1 mg/kg, route intravenous, time infinity"}, "MV4-11 [18]": {"system": "MV4-11", "test": "Induction of apoptosis in human MV4-11 cells assessed as necrotic cells at 1 nM after 48 hrs by annexin V/propidium iodide staining based FACS analysis (reference value: 0.05%)", "assay_type": "functional"}, "MV4-11 [19]": {"system": "MV4-11", "test": "Induction of apoptosis in human MV4-11 cells assessed as necrotic cells at 1000 nM after 48 hrs by annexin V/propidium iodide staining based FACS analysis (reference value: 0.05%)", "assay_type": "functional"}, "[20]": {"molecular_target": "T1, Receptor-type tyrosine-protein kinase FLT3 (Homo sapiens, UniProt P36888)", "T1 sequence (P36888 whole entry)": "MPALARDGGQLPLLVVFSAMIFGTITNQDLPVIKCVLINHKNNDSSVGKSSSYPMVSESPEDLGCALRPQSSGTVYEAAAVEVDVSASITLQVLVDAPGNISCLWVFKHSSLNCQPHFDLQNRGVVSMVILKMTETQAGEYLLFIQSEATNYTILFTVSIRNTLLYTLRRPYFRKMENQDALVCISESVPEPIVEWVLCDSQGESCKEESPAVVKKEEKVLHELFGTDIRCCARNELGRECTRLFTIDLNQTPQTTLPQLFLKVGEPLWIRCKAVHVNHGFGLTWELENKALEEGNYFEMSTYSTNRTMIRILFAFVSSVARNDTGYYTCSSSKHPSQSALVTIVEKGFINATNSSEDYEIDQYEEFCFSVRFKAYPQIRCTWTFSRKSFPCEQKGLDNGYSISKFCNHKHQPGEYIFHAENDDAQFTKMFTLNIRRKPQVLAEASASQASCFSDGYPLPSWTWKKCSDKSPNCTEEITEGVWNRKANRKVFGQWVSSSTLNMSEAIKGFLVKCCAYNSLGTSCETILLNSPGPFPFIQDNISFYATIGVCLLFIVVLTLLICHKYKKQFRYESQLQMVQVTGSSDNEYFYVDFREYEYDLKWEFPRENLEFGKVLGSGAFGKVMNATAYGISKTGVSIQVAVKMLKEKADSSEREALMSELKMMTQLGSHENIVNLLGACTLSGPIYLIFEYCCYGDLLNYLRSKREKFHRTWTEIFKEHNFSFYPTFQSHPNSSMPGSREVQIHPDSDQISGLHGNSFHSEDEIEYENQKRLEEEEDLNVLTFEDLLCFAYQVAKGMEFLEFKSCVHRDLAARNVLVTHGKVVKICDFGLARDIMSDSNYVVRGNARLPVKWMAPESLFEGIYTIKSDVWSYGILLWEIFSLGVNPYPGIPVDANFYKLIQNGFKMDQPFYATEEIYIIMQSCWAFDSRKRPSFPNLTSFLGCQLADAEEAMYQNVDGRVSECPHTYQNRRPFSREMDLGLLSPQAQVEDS", "test": "Binding affinity to human partial length wild type FLT3 (592 to 969 residues) expressed in bacterial expression system after 1 hr"}, "MV4-11 [21]": {"system": "MV4-11", "test": "Induction of apoptosis in human MV4-11 cells assessed as apoptotic cells after 48 hrs by annexin V/propidium iodide staining based FACS analysis", "assay_type": "functional, cell-based"}, "[22]": {"molecular_target": "Receptor-type tyrosine-protein kinase FLT3 (Homo sapiens) (UniProt P36888)", "test": "Inhibition of human FLT3 expressed in bacterial system assessed as remaining enzyme activity at 1 uM relative to untreated control"}},
  "data": [
    {"molecule": "Cc1cc(Nc2ncc3ncc(=O)n(-c4ccc(N)cc4)c3n2)ccc1N1CCN(C)CC1", "values": [
      {"measurement": "Activity", "setting": "MV4-11 [1]", "result": 12.02, "unit": "%"},
      {"measurement": "Activity", "setting": "[2]", "result": "< 1", "unit": "%"},
      {"measurement": "Activity", "setting": "MV4-11 [3]", "result": 21.77, "unit": "%"},
      {"measurement": "IC50", "setting": "HT-29", "result": 3020, "unit": "nM"},
      {"measurement": "IC50", "setting": "MOLM-13", "result": 32.9, "unit": "nM"},
      {"measurement": "Activity", "setting": "MV4-11 [4]", "result": 38.4, "unit": "%"},
      {"measurement": "Activity", "setting": "[5]", "result": "< 1", "unit": "%"},
      {"measurement": "Cmax", "setting": "[6]", "result": 55.2, "unit": "ng/mL"},
      {"measurement": "Activity", "setting": "MV4-11 [7]", "result": "Dose-dependent effect"},
      {"measurement": "IC50", "setting": "DMS-79", "result": "> 10000", "unit": "nM"},
      {"measurement": "bioavailability", "setting": "[8]", "result": 26.4, "unit": "%"},
      {"measurement": "selectivity ratio", "setting": "[9]", "result": "33 to 81"},
      {"measurement": "Kd", "setting": "[10]", "result": 0.79, "unit": "nM"},
      {"measurement": "Activity", "setting": "[11]", "result": "< 1", "unit": "%"},
      {"measurement": "Activity", "setting": "MV4-11 [12]", "result": 80.55, "unit": "%"},
      {"measurement": "Activity", "setting": "MV4-11 [13]", "result": 85.92, "unit": "%"},
      {"measurement": "Activity", "setting": "MV4-11 [14]", "result": 0.02, "unit": "%"},
      {"measurement": "Activity", "setting": "MV4-11 [15]", "result": 16.4, "unit": "%"},
      {"measurement": "TGI", "setting": "MV4-11 [16]", "result": "Dose-dependent effect"},
      {"measurement": "AUC(0-inf)", "setting": "[17]", "result": 119, "unit": "ng·h/mL"},
      {"measurement": "Activity", "setting": "MV4-11 [18]", "result": 0.1, "unit": "%"},
      {"measurement": "Activity", "setting": "MV4-11 [19]", "result": 0.05, "unit": "%"},
      {"measurement": "Kd", "setting": "[20]", "result": 5, "unit": "nM"},
      {"measurement": "Activity", "setting": "MV4-11 [21]", "result": "Dose-dependent effect"},
      {"measurement": "Activity", "setting": "[22]", "result": "< 1", "unit": "%"}
    ]}
  ]
}
